Results reported in patent US20230065745A1, “PIPERIDINE-2,6-DIONE DERIVATIVES WHICH BIND TO CEREBLON, AND METHODS OF USE THEREOF” (Captor Therapeutics S.A., priority 2019, published 2023).

molecular target: CRBN-DDB1 protein complex (Homo sapiens, UniProt Q96SW2); assay: Fluorescence Polarization (FP) assay, displacement of Cy5-labelled thalidomide; settings: 25 nM CRBN-DDB1, 5 nM Cy5-labelled thalidomide, read-out: CRBN binding Ki
Protocol: CRBN-DDB1 protein complex was mixed with Cy5-labelled thalidomide and a compound to be tested (the “test compound”). […] The test solution was added to a 384-well assay plate.
The plate was spun-down (1 min, 1000 rpm, 22° C.) and then shaken using a VibroTurbulator for 10 min at room temperature (20-25° C.), with the frequency set to level 3. The assay plate with protein and the tracer was incubated for 60 min at room temperature (20-25° C.) prior to read-out with a plate reader.
The FP experiment was carried out with various concentrations of the test compounds in order to measure Ki values.

Chain of CRBN-DDB1 protein complex (Q96SW2 whole entry): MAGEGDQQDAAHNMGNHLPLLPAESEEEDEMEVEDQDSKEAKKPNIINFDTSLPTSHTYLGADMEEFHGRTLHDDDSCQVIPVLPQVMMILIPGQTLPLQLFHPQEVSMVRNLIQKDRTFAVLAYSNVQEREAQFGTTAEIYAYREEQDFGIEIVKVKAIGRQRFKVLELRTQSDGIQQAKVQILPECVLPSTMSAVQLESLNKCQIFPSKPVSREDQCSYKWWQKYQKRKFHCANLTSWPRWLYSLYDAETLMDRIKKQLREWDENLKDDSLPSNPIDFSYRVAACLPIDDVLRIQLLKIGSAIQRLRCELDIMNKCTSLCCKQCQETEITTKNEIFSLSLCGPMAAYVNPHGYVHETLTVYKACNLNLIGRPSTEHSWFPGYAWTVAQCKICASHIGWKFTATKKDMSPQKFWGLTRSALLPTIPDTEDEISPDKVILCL
Chain of CRBN-DDB1 protein complex (Q16531 whole entry partner): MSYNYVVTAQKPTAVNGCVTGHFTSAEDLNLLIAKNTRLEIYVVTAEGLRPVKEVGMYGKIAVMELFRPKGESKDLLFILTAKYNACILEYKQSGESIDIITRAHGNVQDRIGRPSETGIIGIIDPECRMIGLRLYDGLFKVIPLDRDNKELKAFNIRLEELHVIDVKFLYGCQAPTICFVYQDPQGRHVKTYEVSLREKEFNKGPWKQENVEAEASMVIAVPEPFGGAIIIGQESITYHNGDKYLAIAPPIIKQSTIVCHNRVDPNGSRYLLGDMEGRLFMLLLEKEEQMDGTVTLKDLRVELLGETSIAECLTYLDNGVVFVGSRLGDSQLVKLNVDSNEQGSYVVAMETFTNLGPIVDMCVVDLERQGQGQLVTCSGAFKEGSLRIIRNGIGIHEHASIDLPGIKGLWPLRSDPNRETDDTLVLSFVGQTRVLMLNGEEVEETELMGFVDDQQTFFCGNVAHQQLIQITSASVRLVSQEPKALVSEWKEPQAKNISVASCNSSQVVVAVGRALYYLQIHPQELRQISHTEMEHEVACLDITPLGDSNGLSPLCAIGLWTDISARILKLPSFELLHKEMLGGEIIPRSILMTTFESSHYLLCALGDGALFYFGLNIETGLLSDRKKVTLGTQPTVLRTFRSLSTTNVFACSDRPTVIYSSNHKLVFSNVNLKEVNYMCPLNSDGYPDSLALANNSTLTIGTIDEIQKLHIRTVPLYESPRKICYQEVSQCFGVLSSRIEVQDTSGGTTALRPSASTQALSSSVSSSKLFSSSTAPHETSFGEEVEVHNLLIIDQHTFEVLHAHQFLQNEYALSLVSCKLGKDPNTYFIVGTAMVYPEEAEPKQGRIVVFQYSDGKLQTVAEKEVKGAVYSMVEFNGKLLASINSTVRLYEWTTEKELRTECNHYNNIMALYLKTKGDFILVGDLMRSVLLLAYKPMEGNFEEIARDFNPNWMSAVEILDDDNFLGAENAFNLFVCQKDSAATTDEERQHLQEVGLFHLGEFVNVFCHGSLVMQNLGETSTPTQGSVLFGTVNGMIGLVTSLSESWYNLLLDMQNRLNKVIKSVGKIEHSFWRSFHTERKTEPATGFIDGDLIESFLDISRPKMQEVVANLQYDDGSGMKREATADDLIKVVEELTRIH

SMILES | Ki [µM]
O=C1CCC(NC(=O)c2ncsc2C2CC2)C(=O)N1 (centres unmarked) [Compound 82, 5-Cyclopropyl-N-(2,6-dioxopiperidin-3-yl)thiazole-4-carboxamide] | 10 to 50
CC(=O)Nc1ccsc1C(=O)NC1CCC(=O)NC1=O (centres unmarked) [Compound 7, N-(2,6-dioxopiperidin-3-yl)-3-acetamidothiophene-2-carboxamide] | 5 to 10
C[C@H](O)C(=O)Nc1sc(Cl)cc1C(=O)NC1CCC(=O)NC1=O (stereo partly drawn) [Compound 17, 5-chloro-N-(2,6-dioxopiperidin-3-yl)-2-[(2S)-2-hydroxypropanamido]thiophene-3-carboxamide] | 10 to 50
CC(=O)Nc1sc(C#N)cc1C(=O)NC1CCC(=O)NC1=O (centres unmarked) [Compound 9, 5-cyano-N-(2,6-dioxopiperidin-3-yl)-2-acetamidothiophene-3-carboxamide] | < 5
CC(C)(C)OC(=O)NCc1csc(C(=O)NC2CCC(=O)NC2=O)c1 (centres unmarked) [Compound 51, tert-butyl ((5-((2,6-dioxopiperidin-3-yl)carbamoyl)thiophen-3-yl)methyl)carbamate] | < 5
CC(=O)Nc1cc(Cl)sc1C(=O)NC1CCC(=O)NC1=O (centres unmarked) [Compound 18, 5-chloro-N-(2,6-dioxopiperidin-3-yl)-3-acetamidothiophene-2-carboxamide] | 10 to 50
CC(C)(C)OC(=O)NCc1sccc1C(=O)NC1CCC(=O)NC1=O (centres unmarked) [Compound 63, tert-butyl ((3-((2,6-dioxopiperidin-3-yl)carbamoyl)thiophen-2-yl)methyl)carbamate] | 10 to 50
NCc1ccc(C(=O)NC2CCC(=O)NC2=O)s1 (centres unmarked) [Compound 50, 5-(aminomethyl)-N-(2,6-dioxopiperidin-3-yl)thiophene-2-carboxamide] | 10 to 50
Cn1cc(C(=O)NC2CCC(=O)NC2=O)c2cccnc21 (centres unmarked) [Compound 98, N-(2,6-dioxopiperidin-3-yl)-1-methyl-1H-pyrrolo[2,3-b]pyridine-3-carboxamide] | 10 to 50
CC(C)(C)OC(=O)Nc1ncc(C(=O)NC2CCC(=O)NC2=O)s1 (centres unmarked) [Compound 71, tert-butyl (5-((2,6-dioxopiperidin-3-yl)carbamoyl)thiazol-2-yl)carbamate] | < 5
O=C1CCC(NC(=O)c2cc(Cl)sc2NC(=O)Cc2ccccc2)C(=O)N1 (centres unmarked) [Compound 46, 5-chloro-N-(2,6-dioxopiperidin-3-yl)-2-(2-phenylacetamido)thiophene-3-carboxamide] | 5 to 10
Nc1sc(Cl)cc1C(=O)NC1CCC(=O)NC1=O (centres unmarked) [Compound 40, 2-amino-5-chloro-N-(2,6-dioxopiperidin-3-yl)thiophene-3-carboxamide] | < 5
Nc1ncc(C(=O)NC2CCC(=O)NC2=O)s1 (centres unmarked) [Compound 112, 2-amino-N-(2,6-dioxopiperidin-3-yl)thiazole-5-carboxamide] | 5 to 10
CCOc1sccc1C(=O)NC1CCC(=O)NC1=O (centres unmarked) [Compound 28, N-(2,6-dioxopiperidin-3-yl)-2-ethoxythiophene-3-carboxamide] | < 5
O=C1CCC(NC(=O)c2cc(O)cs2)C(=O)N1 (centres unmarked) [Compound 53, N-(2,6-dioxopiperidin-3-yl)-4-hydroxythiophene-2-carboxamide] | < 5
O=C1CCC(NC(=O)c2c[nH]c3nccc(Cl)c23)C(=O)N1 (centres unmarked) [Compound 97, 4-chloro-N-(2,6-dioxopiperidin-3-yl)-1H-pyrrolo[2,3-b]pyridine-3-carboxamide] | 5 to 10
O=C1CCC(NC(=O)c2ccoc2C2CC2)C(=O)N1 (centres unmarked) [Compound 47, 2-cyclopropyl-N-(2,6-dioxopiperidin-3-yl)furan-3-carboxamide] | 10 to 50
O=C1CCC(NC(=O)c2ccsc2-n2cccn2)C(=O)N1 (centres unmarked) [Compound 39, N-(2,6-dioxopiperidin-3-yl)-2-(1H-pyrazol-1-yl)thiophene-3-carboxamide] | 10 to 50

SMILES | Ki [µM]
CC(C)(C)OC(=O)NCc1ccc(C(=O)NC2CCC(=O)NC2=O)s1 (centres unmarked) [Compound 49, tert-butyl ((5-((2,6-dioxopiperidin-3-yl)carbamoyl)thiophen-2-yl)methyl)carbamate] | < 5
COc1scnc1C(=O)NC1CCC(=O)NC1=O (centres unmarked) [Compound 79, N-(2,6-dioxopiperidin-3-yl)-5-methoxythiazole-4-carboxamide] | 5 to 10
CC(C)(C)OC(=O)NCc1nc(C(=O)NC2CCC(=O)NC2=O)cs1 (centres unmarked) [Compound 77, tert-butyl ((4-((2,6-dioxopiperidin-3-yl)carbamoyl)thiazol-2-yl)methyl)carbamate] | 5 to 10
COc1sc(C(C)(C)C)cc1C(=O)NC1CCC(=O)NC1=O (centres unmarked) [Compound 35, 5-(tert-butyl)-N-(2,6-dioxopiperidin-3-yl)-2-methoxythiophene-3-carboxamide] | < 5
O=C1CCC(NC(=O)c2ccsc2C2CC2)C(=O)N1 (centres unmarked) [Compound 66, 2-cyclopropyl-N-(2,6-dioxopiperidin-3-yl)thiophene-3-carboxamide] | 10 to 50
COc1sc(C2CC2)cc1C(=O)NC1CCC(=O)NC1=O (centres unmarked) [Compound 32, 5-cyclopropyl-N-(2,6-dioxopiperidin-3-yl)-2-methoxythiophene-3-carboxamide] | < 5
COc1sc(-c2ccccc2)cc1C(=O)NC1CCC(=O)NC1=O (centres unmarked) [Compound 33, N-(2,6-dioxopiperidin-3-yl)-2-methoxy-5-phenylthiophene-3-carboxamide] | < 5
COc1sc(C)cc1C(=O)NC1CCC(=O)NC1=O (centres unmarked) [Compound 30, N-(2,6-dioxopiperidin-3-yl)-2-methoxy-5-methylthiophene-3-carboxamide] | < 5
O=C1CCC(NC(=O)c2sc(Br)c3cccnc23)C(=O)N1 (centres unmarked) [Compound 96] | < 5
NCc1csc(C(=O)NC2CCC(=O)NC2=O)c1 (centres unmarked) [Compound 52, 4-(aminomethyl)-N-(2,6-dioxopiperidin-3-yl)thiophene-2-carboxamide] | 10 to 50
COc1scc(C)c1C(=O)NC1CCC(=O)NC1=O (centres unmarked) [Compound 29, N-(2,6-dioxopiperidin-3-yl)-2-methoxy-4-methylthiophene-3-carboxamide] | 5 to 10
O=C1CCC(NC(=O)c2c[nH]c3ncc(Cl)cc23)C(=O)N1 (centres unmarked) [Compound 99, 5-chloro-N-(2,6-dioxopiperidin-3-yl)-1H-pyrrolo[2,3-b]pyridine-3-carboxamide] | 5 to 10
O=C1CCC(NC(=O)c2csc(=O)[nH]2)C(=O)N1 (centres unmarked) [Compound 15, N-(2,6-dioxopiperidin-3-yl)-2-oxo-2,3-dihydrothiazole-4-carboxamide] | 5 to 10
COc1sc(Br)cc1C(=O)NC1CCC(=O)NC1=O (centres unmarked) [Compound 34, 5-bromo-N-(2,6-dioxopiperidin-3-yl)-2methoxythiophene-3-carboxamide] | < 5
CNc1scnc1C(=O)NC1CCC(=O)NC1=O (centres unmarked) [Compound 78, N-(2,6-dioxopiperidin-3-yl)-5-(methylamino)thiazole-4-carboxamide] | 10 to 50
COc1sc(N)nc1C(=O)NC1CCC(=O)NC1=O (centres unmarked) [Compound 80, 2-amino-N-(2,6-dioxopiperidin-3-yl)-5-methoxythiazole-4-carboxamide] | < 5
CCOc1oc(C)nc1C(=O)NC1CCC(=O)NC1=O (centres unmarked) [Compound 68, N-(2,6-dioxopiperidin-3-yl)-5-ethoxy-2-methyloxazole-4-carboxamide] | 10 to 50

tested on: IKZF1; assay: IKZF1 degradation assay, H929 cell line (Western blot densitometry); type: cell-based; settings: 20 μM
Protocol: Cells were seeded on 6- or 12-well plates, and the compounds to be tested were added at the desired concentration range. […] After 6 or 24 h incubation (3TC, 5% CO2), cells were harvested, washed and cell lysates were prepared using RIPA lysis buffer. The amount of protein was determined via BCA assay, and the appropriate quantity was then loaded on the precast gel for the protein separation. After primary and secondary Ab staining, the membranes were washed and signals developed. The densitometry analysis was implemented to obtain the numeric values used later in the protein level evaluation process. […] The treatment with all compounds was carried out for 24 h.

SMILES | % of IKZF1 protein reduction, IKZF 1 (24 H, 20 μM)
CC(=O)Nc1ccsc1C(=O)NC1CCC(=O)NC1=O (centres unmarked) [Compound 7, N-(2,6-dioxopiperidin-3-yl)-3-acetamidothiophene-2-carboxamide] | ≤25% (≤25% for 0-25% of IKZF1 protein reduction)
C[C@H](O)C(=O)Nc1sc(Cl)cc1C(=O)NC1CCC(=O)NC1=O (stereo partly drawn) [Compound 17, 5-chloro-N-(2,6-dioxopiperidin-3-yl)-2-[(2S)-2-hydroxypropanamido]thiophene-3-carboxamide] | ≤25% (≤25% for 0-25% of IKZF1 protein reduction)
CC(=O)Nc1sc(C#N)cc1C(=O)NC1CCC(=O)NC1=O (centres unmarked) [Compound 9, 5-cyano-N-(2,6-dioxopiperidin-3-yl)-2-acetamidothiophene-3-carboxamide] | ≤25% (≤25% for 0-25% of IKZF1 protein reduction)
CC(=O)N(C)c1sccc1C(=O)NC1CCC(=O)NC1=O (centres unmarked) [Compound 2, N-(2,6-dioxopiperidin-3-yl)-2-(N-methylacetamido)thiophene-3-carboxamide] | ≤25% (≤25% for 0-25% of IKZF1 protein reduction)
CC(=O)Nc1cc(Cl)sc1C(=O)NC1CCC(=O)NC1=O (centres unmarked) [Compound 18, 5-chloro-N-(2,6-dioxopiperidin-3-yl)-3-acetamidothiophene-2-carboxamide] | ≤25% (≤25% for 0-25% of IKZF1 protein reduction)
O=C1CCC(NC(=O)c2cc(Cl)sc2NC(=O)c2ccccc2)C(=O)N1 (centres unmarked) [Compound 45, 2-benzamido-5-chloro-N-(2,6-dioxopiperidin-3-yl)thiophene-3-carboxamide] | >25% (>25% for 26-74% of IKZF1 protein reduction)
O=C1CCC(NC(=O)c2cnc(C(F)(F)F)s2)C(=O)N1 (centres unmarked) [Compound 72, N-(2,6-dioxopiperidin-3-yl)-2-(trifluoromethyl)thiazole-5-carboxamide] | ≤25% (≤25% for 0-25% of IKZF1 protein reduction)
CC(C)(C)OC(=O)Nc1ncc(C(=O)NC2CCC(=O)NC2=O)s1 (centres unmarked) [Compound 71, tert-butyl (5-((2,6-dioxopiperidin-3-yl)carbamoyl)thiazol-2-yl)carbamate] | ≤25% (≤25% for 0-25% of IKZF1 protein reduction)
O=C1CCC(NC(=O)c2cc(Cl)sc2NC(=O)Cc2ccccc2)C(=O)N1 (centres unmarked) [Compound 46, 5-chloro-N-(2,6-dioxopiperidin-3-yl)-2-(2-phenylacetamido)thiophene-3-carboxamide] | ≤25% (≤25% for 0-25% of IKZF1 protein reduction)
Nc1sc(Cl)cc1C(=O)NC1CCC(=O)NC1=O (centres unmarked) [Compound 40, 2-amino-5-chloro-N-(2,6-dioxopiperidin-3-yl)thiophene-3-carboxamide] | ≤25% (≤25% for 0-25% of IKZF1 protein reduction)
O=C1CCC(NC(=O)c2ccsc2-n2cccc2)C(=O)N1 (centres unmarked) [Compound 41, N-(2,6-dioxopiperidin-3-yl)-2-(1H-pyrrol-1-yl)thiophene-3-carboxamide] | ≤25% (≤25% for 0-25% of IKZF1 protein reduction)
CC(=O)Nc1sc2c(c1C(=O)NC1CCC(=O)NC1=O)CCCC2 (centres unmarked) [Compound 105, N-(2,6-dioxopiperidin-3-yl)-2-acetamido-4,5,6,7-tetrahydro-1-benzothiophene-3-carboxamide] | ≤25% (≤25% for 0-25% of IKZF1 protein reduction)
